Measured values as given in patent US20240307497A1, “ADIPONECTIN ALONE OR IN COMBINATION WITH EXTRACORPOREAL PHOTOPHERESIS (ECP) FOR IMMUNE RELATED ADVERSE EVENTS OF IMMUNE CHECKPOINT INHIBITORS” (Mallinckrodt Pharmaceuticals Ireland Limited, priority 2022, published 2024).
Entries after “also recorded” stand apart in the source; their conditions may differ. Where two headings read alike, the source gives them in different places.

Experiments:
ICI-hepatitis = conditions: cited from earlier work; for Response / Steroid reduction: case reports
ICI-colitis = conditions: cited from earlier work; for ORR (clinical remission) / response rate: retrospective observational cohort, best response at any time point
[1] = system: F4/80^+ macrophages (BMDMs); test: Arg1 in BMDMs exposed to recombinant adiponectin or AdipoRon; format: cell-based, mouse; conditions: increasing concentrations, 48 h, vs vehicle
Description: BMDMs were generated from bone marrow after erythrocyte lysis. Cells were cultured in RPMI supplemented with 10% FCS, 1% P/S and 20 ng/mL rmM-CSF (Peprotech). Culture medium was replaced on days 5 and 6. Cells were used on day 7 with a purity >95%, confirmed by surface CD11b and F4/80 expression. BMDMs (M0) were polarized for 16 h into M1 with 50 ng/mL rmIFNγ (Peprotech) and 20 ng/mL LPS (Sigma), or into M2 with 20 ng/mL rmIL-4 (Peprotech). If indicated, BMDMs were treated with increasing concentrations of recombinant adiponectin/Acrp30 (GenScript) or AdipoRon (MedChemExpress) for 48 h.
(§1) Spleens were isolated, meshed and erythrocytes were lysed. Single cell suspensions of tissues were prepared as described. Viability was analyzed by either Zombie NIR fixable dye (BioLegend) or LIVE/DEAD Fixable Aqua (Invitrogen) staining. Fc receptors were blocked with anti-mouse CD16/CD32 (BioLegend) for 10 min at 4° C., followed by surface staining with fluorochrome-conjugated antibodies for 30 min at 4° C. […] Antigen-specific CD8 T-cells were analyzed after H-2Kb/OVA^257-264 dextramer staining (Immudex). […] All data were acquired on a BD LSR Fortessa (BD Biosciences) and analyzed with FlowJo v10 (TreeStar). […] Data was acquired with a Canto II flow cytometer (BD Biosciences) and analyzed using FACSDiva Software V6 (BD Biosciences).

[2] = system: DSS/anti-PD1-induced colitis; test: DSS/anti-PD1-induced colitis model; format: in vivo, mice; conditions: for ICI-induced colonic inflammation, combination with ECP: ECP plus agent vs ECP plus vehicle, FIGS. 4i-p; for severity of ICI-induced colitis (bodyweight, colon length, neutrophil and lymphocyte infiltration): monotherapy vs vehicle, daily days 3-7, FIGS. 4a-h
Description: For modeling ECP transplantation in vivo, splenocytes of donor mice were used. Donor animals were treated identically to the respective recipient groups. Spleens were harvested, meshed and erythrocytes were lysed. Splenocytes were resuspended to 3-5×10^6 cells/mL in RPMI, supplemented with 10% FCS and 1% P/S, and treated with 200 ng/mL 8-methoxypsoralen (8-MOP; Uvadex©, Therakos) at 37° C. and 5% CO2 for 30 min. Following incubation, the cells were exposed to UVA light (2 J/cm2) in a calibrated BS-02 irradiation chamber, operated in dose-controlled mode (Opsytec Dr. Gröbel). ECP-treated splenocytes were resuspended in PBS and […] were injected intravenously into recipient mice. Where indicated, PBMCs were treated with ECP comparably to splenocytes and 107 PBMCs were injected intravenously into recipient mice. PBMCs from mouse EDTA-blood were isolated using Ficoll-Paque PREMIUM 1.084 (Cytiva). For ECP-treatment of epithelial cells, 6×10^6 MODE-K cells were seeded onto 10 cm dishes one day before ECP-treatment. The next day, cells were treated with 8-methoxypsoralen and UVA light in a calibrated BS-02 irradiation chamber. Cells were washed with PBS and 2×10^6 ECP-treated MODE-K cells were injected intravenously into recipient mice.
(§2) For the induction of acute colitis, mice received 3% Dextran Sodium Sulfate (DSS colitis grade, 36-50 kDa; MP Biomedicals) in drinking water from day 0 to day 3, followed by normal drinking water. Mice were injected i.p. with 0.2 mg immune checkpoint inhibitor (ICI) or the respective isotype controls on days 0, 3 and 6 of the experiment. Recipients were transplanted i.v. with 107 ECP-treated donor splenocytes on days 3 and 6. In some experiments, steroid, adiponectin or AdipoRon were applied daily from days 3-7. Arginase-1 inhibitor was applied twice per day from days 4-7. STAT6 or PPARγ inhibitors were applied from day 4-7. Mice were injected with Clodrosomes on days 1, 3, 5 and 7. If not indicated differently, mice were sacrificed in day 8 by retroorbital bleeding to harvest serum and organs which were harvested for histopathological scoring and gene expression analysis.
ICI treatment consisted of either 0.2 mg anti-PD1 (mouse, clone RMP1-14; Ichorbio) or 0.2 mg anti-CTLA4 (mouse, clone 9D9; Ichorbio) per injection intraperitoneally. Controls were Rat IgG2a Isotype Control (clone 1-1, Ichorbio) and Mouse IgG2b Isotype Control (clone MPC-11, Ichorbio), respectively. […]
(§3) Colon, liver, skin and lung were harvested, formalin-fixed and paraffin embedded. Sections were stained with H&E and scored by an experienced pathologist, based on histopathological characterization of human irAEs, including lymphocyte and neutrophil infiltration, crypt abscesses, and apoptotic cells on a scale from 0 (absent) to 2 (massive). […]

[3] = system: DSS/anti-CTLA4-induced colitis; test: DSS/anti-CTLA4-induced colitis model; format: in vivo, mice; conditions: AdipoRon vs vehicle; FIGS. S10a-S10d
Description: as §2, with “If not indicated differently, mice were sacrificed in day 8 by retroorbital bleeding to harvest serum and organs which were harvested for histopathological scoring and gene expression analysis.” left out
as §3
For quantification of adiponectin concentrations in murine serum specimen, blood was harvested by retroorbital bleeding and serum was isolated by centrifugation. Adiponectin concentrations were measured using Adiponectin Mouse ELISA Kit (ThermoFisher) at 20,000-fold dilution.

pan T-cells = test: T-cell activation with anti-CD3/CD28 beads in the presence of adiponectin; format: cell-based, mouse; conditions: 72 h, vs vehicle
Description: (§4) Splenic T-cells were isolated from C57BL/6 donors using Pan T-cell isolation kit II (Miltenyi) and activated using anti-CD3/CD28 beads (ThermoScientific) in the presence of 30 U/mL rmIL2 (Peprotech). T-cells were treated with 9 μg/mL recombinant murine adiponectin (GenScript) or vehicle for 72 h. C57BL/6 recipients received 1% DSS (MP Biomedicals) in drinking water from day 0 to day 3, followed by normal drinking water to induce mild colitis. Mice were injected i.p. with 0.2 mg anti-PD1 on day 0, day 3 and day 6 of the experiment. On day 4, activation beads were removed, T-cells were washed and 5×106 T-cells were intravenously injected into colitis animals. Colitis tissue was harvested on day 8. T-cells were stained for CD25 surface expression to determine activation.
as §1, with “staining.” for “staining. Fc receptors were blocked with anti-mouse CD16/CD32 (BioLegend) for 10 min at 4° C., followed by surface staining with fluorochrome-conjugated antibodies for 30 min at 4° C.”

[4] = system: DSS/anti-PD1-induced colitis; test: Adoptive transfer of adiponectin-treated T-cells into colitis mice; format: in vivo; conditions: adiponectin-treated vs vehicle-treated T-cells
Description: as §4
Colon, liver, skin and lung were harvested, formalin-fixed and paraffin embedded. Sections were stained with H&E and scored by an experienced pathologist, based on histopathological characterization of human irAEs, including lymphocyte and neutrophil infiltration, crypt abscesses, and apoptotic cells on a scale from 0 (absent) to 2 (massive). Scoring was done blinded to the experimental group.

[5] = retrospective analysis of 8 patients
[6] = retrospective analysis of 13 patients

COc1c(C)c2c(c(O)c1C/C=C(\C)CCC(=O)OCCN1CCOCC1)C(=O)OC2 [Mycophenolate mofetil]
Response (ICI-hepatitis): Improved liver injury within 13; also recorded: Discharge of MMF after 68 days; also recorded: Liver function normalized within 3
Steroid reduction (ICI-hepatitis): Tapered from 60 to 10 mg/d; also recorded: Tapered from 500 to 10 mg/d; also recorded: Discontinuation after 1 year
ORR (ICI-hepatitis; retrospective, 8 patients, liver function tests to grade 1 or less): 50%
Adverse events (ICI-hepatitis; retrospective, 8 patients): 25%

Tocilizumab: interleukin-6 blockade by tocilizumab
Adverse events, any grade (ICI-colitis; human, in vivo): 80%
Adverse events, grade 3-4 (ICI-colitis; human, in vivo): 25%
patients with reduction in symptoms (ICI-colitis; prospective trial, best response during 8 weeks): 8 of 10
ORR (ICI-colitis; prospective, 10 patients, colitis improvement (≥1 grade reduction) within 8 weeks): 80%
CR (ICI-colitis; prospective, 10 patients): 0%

Vedolizumab: treatment for ICI-colitis in cited studies
endoscopic remission rate (ICI-colitis; retrospective case series, 28 patients refractory to steroids and/or infliximab): 29%
ORR (clinical remission) / response rate (ICI-colitis): 89%
ORR (clinical remission) / response rate (ICI-colitis; listed as vedolizumab): 89%

C=CC[C@@H]1/C=C(\C)C[C@H](C)C[C@H](OC)[C@H]2O[C@@](O)(C(=O)C(=O)N3CCCC[C@H]3C(=O)O[C@H](/C(C)=C/[C@@H]3CC[C@@H](O)[C@H](OC)C3)[C@H](C)[C@@H](O)CC1=O)[C@H](C)C[C@@H]2OC [Tacrolimus]
Response (ICI-hepatitis): Decreasing ALT levels within 2-5
Steroid reduction (ICI-hepatitis): Cessation at 12 months; also recorded: Cessation of prednisolone over 6

O=C(COc1ccc(C(=O)c2ccccc2)cc1)NC1CCN(Cc2ccccc2)CC1 [AdipoRon]
Arg1 (MFI) in BMDMs [1]: upregulation of immunosuppressive Arg1
ICI-induced colonic inflammation, combination with ECP [2]: synergized with ECP to reduce ICI-induced colonic inflammation
severity of ICI-induced colitis (bodyweight, colon length, neutrophil and lymphocyte infiltration) [2]: effective in anti-PD1-mediated colitis
DSS/anti-CTLA4-induced colitis / intestinal inflammation [3]: reduced anti-CTLA-4-induced colitis; also recorded: also in DSS/anti-CTLA4-induced intestinal inflammation

Infliximab: TNF antagonist
Response (ICI-hepatitis): Partial response, reduction of ALT
Steroid reduction (ICI-hepatitis): Tapering to 30%, off steroid at 14
CR rate (ICI-colitis; [5]): 38%
ORR (ICI-colitis; [5]): 50%
CR (ICI-colitis; [6]): 31%
ORR (ICI-colitis; [6]): 45%
ORR (clinical remission) / response rate (ICI-colitis): 88%

B1: adiponectin: recombinant murine adiponectin (GenScript); protein hormone and adipokine (protein, UniProt Q60994 18-247, looked up)
Adiponectin: EDDVTTTEELAPALVPPPKGTCAGWMAGIPGHPGHNGTPGRDGRDGTPGEKGEKGDAGLLGPKGETGDVGMTGAEGPRGFPGTPGRKGEPGEAAYVYRSAFSVGLETRVTVPNVPIRFTKIFYNQQNHYDGSTGKFYCNIPGLYYFSYHITVYMKDVKVSLFKKDKAVLFTYDQYQEKNVDQASGSVLLHLEVGDQVWLQVYGDGDHNGLYADNVNDSTFTGFLLYHDTN
Arg1 (MFI) in BMDMs [1]: upregulation of immunosuppressive Arg1
CD25 expression on CD4^+ and CD8^+ T-cells (pan T-cells; 9 μg/mL): reduced the expression of CD25
FoxP3 expression and CD4^+/CD8^+ T-cell frequencies (pan T-cells): no effect on FoxP3 expression and CD4^+/CD8^+ T-cell frequencies
colitis severity in recipients of treated T-cells [4]: Colitis severity was lower
ICI-induced colonic inflammation, combination with ECP [2]: synergized with ECP to reduce ICI-induced colonic inflammation
severity of ICI-induced colitis (bodyweight, colon length, neutrophil and lymphocyte infiltration) [2]: reduce the severity of colitis
